In patent US10758534B2 (Vertex Pharmaceuticals Incorporated, priority 2014, dated 2020):

Target: T1, F508del (Homo sapiens, UniProt P13569, DEL508-508)
T1 construct: expressed in transfected cells
Test: Protocol 2: FRET membrane potential optical assay (VIPR), identification of correction compounds
Assay type: cell-based
Details: F508del CFTR modulator activity; compounds of Table 1; read-out: EC30
In short: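 Mouse NIH3T3 cells, stable F508del; cpd 16 hrs, 37° C., serum-free; pos ctrl 27° C. 16 hrs. Rinse in Krebs Ringers, dye load, then add 10 μM forskolin + 20 μM genistein with Cl^−-free (gluconate) medium; depolarization by FRET voltage dyes.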

T1 sequence (P13569 with tags, fused parts or gaps DEL508-508): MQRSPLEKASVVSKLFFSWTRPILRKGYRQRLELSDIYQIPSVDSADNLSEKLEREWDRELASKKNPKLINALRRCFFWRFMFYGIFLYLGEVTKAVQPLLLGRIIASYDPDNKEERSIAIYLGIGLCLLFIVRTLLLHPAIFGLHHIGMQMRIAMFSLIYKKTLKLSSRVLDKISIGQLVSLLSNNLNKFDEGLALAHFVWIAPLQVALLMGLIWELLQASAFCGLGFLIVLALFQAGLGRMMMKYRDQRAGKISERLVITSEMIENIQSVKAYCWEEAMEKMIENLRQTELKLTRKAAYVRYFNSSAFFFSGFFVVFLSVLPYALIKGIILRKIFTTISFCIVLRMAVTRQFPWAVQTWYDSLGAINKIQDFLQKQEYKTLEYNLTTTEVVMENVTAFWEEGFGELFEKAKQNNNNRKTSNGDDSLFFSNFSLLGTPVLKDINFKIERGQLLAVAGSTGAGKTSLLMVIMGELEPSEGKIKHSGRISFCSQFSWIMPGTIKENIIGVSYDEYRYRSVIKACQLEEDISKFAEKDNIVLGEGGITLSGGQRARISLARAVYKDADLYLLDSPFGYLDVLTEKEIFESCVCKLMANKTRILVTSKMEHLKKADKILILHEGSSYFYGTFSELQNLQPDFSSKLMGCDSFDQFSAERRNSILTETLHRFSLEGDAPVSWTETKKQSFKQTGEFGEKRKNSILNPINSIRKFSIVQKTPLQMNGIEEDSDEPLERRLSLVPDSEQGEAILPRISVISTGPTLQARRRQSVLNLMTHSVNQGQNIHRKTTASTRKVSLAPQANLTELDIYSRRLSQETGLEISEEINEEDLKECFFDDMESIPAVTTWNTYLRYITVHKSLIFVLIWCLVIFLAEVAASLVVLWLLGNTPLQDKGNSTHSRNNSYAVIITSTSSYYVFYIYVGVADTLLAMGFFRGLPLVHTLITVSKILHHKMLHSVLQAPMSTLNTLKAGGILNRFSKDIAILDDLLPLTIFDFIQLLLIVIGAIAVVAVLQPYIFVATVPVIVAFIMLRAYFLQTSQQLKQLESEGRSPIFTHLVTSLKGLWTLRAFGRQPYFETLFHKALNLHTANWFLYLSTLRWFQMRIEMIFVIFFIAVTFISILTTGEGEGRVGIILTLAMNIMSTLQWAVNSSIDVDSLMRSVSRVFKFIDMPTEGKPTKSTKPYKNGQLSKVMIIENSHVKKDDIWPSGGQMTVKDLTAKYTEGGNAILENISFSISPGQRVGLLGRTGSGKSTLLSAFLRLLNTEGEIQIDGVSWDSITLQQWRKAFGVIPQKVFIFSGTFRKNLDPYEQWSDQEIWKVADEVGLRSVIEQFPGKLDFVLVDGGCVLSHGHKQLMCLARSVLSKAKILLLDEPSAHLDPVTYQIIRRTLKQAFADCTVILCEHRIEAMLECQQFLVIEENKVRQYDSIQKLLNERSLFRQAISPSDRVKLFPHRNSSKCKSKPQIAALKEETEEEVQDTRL

Row | SMILES | EC30 [nM]
1 | C[C@@H]1CN(c2nc(-c3ccc(F)cc3F)ccc2C(=O)NS(=O)(=O)c2cccc(N)n2)C(C)(C)C1 [Compound 2372, N-[(6-amino-2-pyridyl)sulfonyl]-6-(2,4-difluorophenyl)-2-[(4S)-2,2,4-trimethylpyrrolidin-1-yl]pyridine-3-carboxamide] | < 3000
2 | CC1CN(c2nc(OC(C)C3CC3)c(F)cc2C(=O)NS(=O)(=O)c2cccc(N)n2)C(C)(C)C1 (stereo not shown) [Compound 2373, N-[(6-amino-2-pyridyl)sulfonyl]-6-(1-cyclopropylethoxy)-5-fluoro-2-(2,2,4-trimethylpyrrolidin-1-yl)pyridine-3-carboxamide] | < 3000
3 | CC(C)COc1cc(F)cc(-c2ccc(C(=O)NS(=O)(=O)c3cccc(N)n3)c(NCC3CCCCC3)n2)c1 [Compound 2375, N-[(6-amino-2-pyridyl)sulfonyl]-2-(cyclohexylmethylamino)-6-(3-fluoro-5-isobutoxy-phenyl)pyridine-3-carboxamide] | 3000 to 10000
4 | CC(C)COc1cc(F)cc(-c2ccc(C(=O)NS(=O)(=O)c3cccc(N)n3)c(N3CCCC4CC43)n2)c1 (stereo not shown) [Compound 2376, N-[(6-amino-2-pyridyl)sulfonyl]-2-(5-azabicyclo[4.1.0]heptan-5-yl)-6-(3-fluoro-5-isobutoxy-phenyl)pyridine-3-carboxamide] | < 3000
5 | CC(C)COc1cc(F)cc(-c2ccc(C(=O)NS(=O)(=O)c3cccnc3)c(N3C[C@@H](C)CC3(C)C)n2)c1 [Compound 2377, 6-(3-fluoro-5-isobutoxy-phenyl)-N-(3-pyridylsulfonyl)-2-[(4S)-2,2,4-trimethylpyrrolidin-1-yl]pyridine-3-carboxamide] | < 3000
6 | CC1CN(c2ncccc2C(=O)NS(=O)(=O)c2cccc(N(C)Cc3cccc(Cl)c3)n2)C(C)(C)C1 (stereo not shown) [Compound 2378, N—[[6-[(3-chlorophenyl)methyl-methyl-amino]-2-pyridyl]sulfonyl]-2-(2,2,4-trimethylpyrrolidin-1-yl)pyridine-3-carboxamide] | < 3000
7 | COc1cc(-c2ccc(C(=O)NS(=O)(=O)c3cccnc3N)c(N3C[C@@H](C)CC3(C)C)n2)ccc1C [Compound 2379, N-[(2-amino-3-pyridyl)sulfonyl]-6-(3-methoxy-4-methyl-phenyl)-2-[(4S)-2,2,4-trimethylpyrrolidin-1-yl]pyridine-3-carboxamide] | < 3000
8 | COc1c(C)cccc1-c1ccc(C(=O)NS(=O)(=O)c2cccnc2N)c(N2C[C@@H](C)CC2(C)C)n1 [Compound 2380, N-[(2-amino-3-pyridyl)sulfonyl]-6-(2-methoxy-3-methyl-phenyl)-2-[(4S)-2,2,4-trimethylpyrrolidin-1-yl]pyridine-3-carboxamide] | < 3000
9 | CC1CN(c2ncccc2C(=O)NS(=O)(=O)c2cccc(Nc3cccc(C(F)(F)F)c3)n2)C(C)(C)C1 (stereo not shown) [Compound 2381, N—[[6-[3-(trifluoromethyl)anilino]-2-pyridyl]sulfonyl]-2-(2,2,4-trimethylpyrrolidin-1-yl)pyridine-3-carboxamide] | < 3000
10 | CC1CN(c2ncccc2C(=O)NS(=O)(=O)c2cccc(N3CCCc4ccccc43)n2)C(C)(C)C1 (stereo not shown) [Compound 2382, N—[[6-(3,4-dihydro-2H-quinolin-1-yl)-2-pyridyl]sulfonyl]-2-(2,2,4-trimethylpyrrolidin-1-yl)pyridine-3-carboxamide] | < 3000
11 | CC1CN(c2ncccc2C(=O)NS(=O)(=O)c2cccc(N3CCC(CCN(C)C)CC3)n2)C(C)(C)C1 (stereo not shown) [Compound 2383, N—[[6-[4-(2-dimethylaminoethyl)-1-piperidyl]-2-pyridyl]sulfonyl]-2-(2,2,4-trimethylpyrrolidin-1-yl)pyridine-3-carboxamide] | 3000 to 10000
12 | CCOc1ccc(-c2cnc(N3CC(C)CC3(C)C)c(C(=O)NS(=O)(=O)c3cccc(N)n3)c2)cn1 (stereo not shown) [Compound 2384, N-[(6-amino-2-pyridyl)sulfonyl]-5-(6-ethoxy-3-pyridyl)-2-(2,2,4-trimethylpyrrolidin-1-yl)pyridine-3-carboxamide] | < 3000
13 | CC1CN(c2ncccc2C(=O)NS(=O)(=O)c2cccc(N3CCc4cc(Cl)ccc43)n2)C(C)(C)C1 (stereo not shown) [Compound 2385, N—[[6-(5-chloroindolin-1-yl)-2-pyridyl]sulfonyl]-2-(2,2,4-trimethylpyrrolidin-1-yl)pyridine-3-carboxamide] | < 3000
14 | C[C@@H]1CN(c2nc(-c3cccc(F)c3O)ccc2C(=O)NS(=O)(=O)c2cccc(N)n2)C(C)(C)C1 [Compound 2386, N-[(6-amino-2-pyridyl)sulfonyl]-6-(3-fluoro-2-hydroxy-phenyl)-2-[(4S)-2,2,4-trimethylpyrrolidin-1-yl]pyridine-3-carboxamide] | < 3000
15 | CC(=O)Nc1cccc(Nc2cccc(S(=O)(=O)NC(=O)c3cccnc3N3CC(C)CC3(C)C)n2)c1 (stereo not shown) [Compound 2387, N—[[6-(3-acetamidoanilino)-2-pyridyl]sulfonyl]-2-(2,2,4-trimethylpyrrolidin-1-yl)pyridine-3-carboxamide] | 3000 to 10000
16 | COc1cc(F)c(-c2ccc(C(=O)NS(=O)(=O)c3cccnc3N)c(N3C[C@@H](C)CC3(C)C)n2)cc1F [Compound 2388, N-[(2-amino-3-pyridyl)sulfonyl]-6-(2,5-difluoro-4-methoxy-phenyl)-2-[(4S)-2,2,4-trimethylpyrrolidin-1-yl]pyridine-3-carboxamide] | < 3000
17 | CC1CN(c2ncccc2C(=O)NS(=O)(=O)c2cccc(Nc3ccc4[nH]ncc4c3)n2)C(C)(C)C1 (stereo not shown) [Compound 2389, N—[[6-(1H-indazol-5-ylamino)-2-pyridyl]sulfonyl]-2-(2,2,4-trimethylpyrrolidin-1-yl)pyridine-3-carboxamide] | 3000 to 10000
18 | CC1CN(c2ncccc2C(=O)NS(=O)(=O)c2cccc(OCc3c(Cl)cccc3Cl)n2)C(C)(C)C1 (stereo not shown) [Compound 2390, N—[[6-[(2,6-dichlorophenyl)methoxy]-2-pyridyl]sulfonyl]-2-(2,2,4-trimethylpyrrolidin-1-yl)pyridine-3-carboxamide] | < 3000
19 | Cc1cccc(CNc2cccc(S(=O)(=O)NC(=O)c3cccnc3N3CC(C)CC3(C)C)n2)c1 (stereo not shown) [Compound 2391, N—[[6-(m-tolylmethylamino)-2-pyridyl]sulfonyl]-2-(2,2,4-trimethylpyrrolidin-1-yl)pyridine-3-carboxamide] | < 3000
20 | C[C@@H]1CN(c2nc(-c3cccc(C(F)(F)F)c3)ccc2C(=O)NS(=O)(=O)c2cccc(N)n2)C(C)(C)C1 [Compound 2392, N-[(6-amino-2-pyridyl)sulfonyl]-6-[3-(trifluoromethyl)phenyl]-2-[(4S)-2,2,4-trimethylpyrrolidin-1-yl]pyridine-3-carboxamide] | < 3000
21 | CC1CN(c2ncccc2C(=O)NS(=O)(=O)c2cccc(N3CC[C@H](F)C3)n2)C(C)(C)C1 (stereo partly drawn) [Compound 2393, N—[[6-[(3S)-3-fluoropyrrolidin-1-yl]-2-pyridyl]sulfonyl]-2-(2,2,4-trimethylpyrrolidin-1-yl)pyridine-3-carboxamide] | 3000 to 10000
22 | Cc1ccc(F)cc1-c1ccc(C(=O)NS(=O)(=O)c2cccc(N)n2)c(N2C[C@@H](C)CC2(C)C)n1 [Compound 2394, N-[(6-amino-2-pyridyl)sulfonyl]-6-(5-fluoro-2-methyl-phenyl)-2-[(4S)-2,2,4-trimethylpyrrolidin-1-yl]pyridine-3-carboxamide] | < 3000
